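Tested at 5 concentrations; 48 h exposure; 96-well plates; endpoints linearly interpolated, else capped at highest concentration. GI50 = concentration required for 50% inhibition of growth.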 Calls of active or inactive are those of the source. Cut-off read from the data, not from the text of the source: active = GI50 up to about 1.1 µM and inactive = higher.
Legend:
Assay in all cases: inhibition of tumour cell growth, NCI panel, 48 h
IGROV-1 = tested on: IGROV-1
MOLT-4 = tested on: MOLT-4
U-251 = tested on: U-251
SF-295 = tested on: SF-295
CCRF-CEM = tested on: CCRF-CEM
SR = tested on: SR
OVCAR-8 = tested on: OVCAR-8
K562 = tested on: K562
LOX IMVI = tested on: LOX IMVI
ACHN = tested on: ACHN
HOP-92 = tested on: HOP-92
OVCAR-3 = tested on: OVCAR-3
A549 = tested on: A549
UACC-62 = tested on: UACC-62
SK-MEL-2 = tested on: SK-MEL-2
OVCAR-4 = tested on: OVCAR-4
OVCAR-5 = tested on: OVCAR-5
MDA-N = tested on: MDA-N
HL-60 = tested on: HL-60
MCF7 = tested on: MCF7
RPMI-8226 = tested on: RPMI-8226
SNB-19 = tested on: SNB-19
HCT-15 = tested on: HCT-15
KM12 = tested on: KM12
MDA-MB-435 = tested on: MDA-MB-435
A498 = tested on: A498
SN12C = tested on: SN12C
UACC-257 = tested on: UACC-257
T47D = tested on: T47D
SF-268 = tested on: SF-268
CAKI-1 = tested on: CAKI-1
NCI-H226 = tested on: NCI-H226
HCC 2998 = tested on: HCC 2998
RXF 393 = tested on: RXF 393
Hs-578T = tested on: Hs-578T
786-0 = tested on: 786-0
UO-31 = tested on: UO-31
TK-10 = tested on: TK-10
SW-620 = tested on: SW-620
HOP-62 = tested on: HOP-62
COLO 205 = tested on: COLO 205
SF-539 = tested on: SF-539
M14 = tested on: M14
HCT-116 = tested on: HCT-116
NCI-H460 = tested on: NCI-H460
HT-29 = tested on: HT-29
SK-MEL-28 = tested on: SK-MEL-28
NCI-H522 = tested on: NCI-H522
SK-OV-3 = tested on: SK-OV-3
NCI-H23 = tested on: NCI-H23
DU-145 = tested on: DU-145
SK-MEL-5 = tested on: SK-MEL-5
SNB-75 = tested on: SNB-75
BT-549 = tested on: BT-549
PC-3 = tested on: PC-3
EKVX = tested on: EKVX
MDA-MB-231 = tested on: MDA-MB-231
NCI/ADR-RES = tested on: NCI/ADR-RES
Malme-3M = tested on: Malme-3M

With `COC(=O)[C@H]1C=C[C@H](OC2OC(COC(C)=O)C(OC(C)=O)C(OC(C)=O)C2OC(C)=O)n2c(=O)n(-c3ccccc3)c(=O)n21` (stereo partly specified) the GI50 (IGROV-1) was 4.98 µM (inactive), the GI50 (MOLT-4) was 2.49 µM (inactive) and the GI50 (U-251) was 8.75 µM (inactive). For the same compound, the GI50 (SF-295) was 13.1 µM (inactive), the GI50 (CCRF-CEM) was 2.25 µM (inactive) and the GI50 (SR) was 2.03 µM (inactive). For the same compound, the GI50 (OVCAR-8) was 5.78 µM (inactive), the GI50 (K562) was 1.77 µM (inactive) and the GI50 (LOX IMVI) was 1.84 µM (inactive). The GI50 (ACHN) was 1.66 µM (inactive), the GI50 (HOP-92) was 1.78 µM (inactive) and the GI50 (OVCAR-3) was 2.91 µM (inactive). For the same compound, the GI50 (A549) was 17.4 µM (inactive), the GI50 (UACC-62) was 1.54 µM (inactive) and the GI50 (SK-MEL-2) was 12.1 µM (inactive). For the same compound, the GI50 (OVCAR-4) was 2.87 µM (inactive), the GI50 (OVCAR-5) was 9.18 µM (inactive) and the GI50 (MDA-N) was 4.68 µM (inactive). For the same compound, the GI50 (HL-60) was 0.406 µM (active), the GI50 (MCF7) was 2.42 µM (inactive) and the GI50 (RPMI-8226) was 1.66 µM (inactive). The GI50 (SNB-19) was 16.7 µM (inactive), the GI50 (HCT-15) was 1.41 µM and the GI50 (KM12) was 11 µM (inactive). For the same compound, the GI50 (MDA-MB-435) was 4.38 µM (inactive), the GI50 (A498) was 4.97 µM (inactive) and the GI50 (SN12C) was 6.52 µM (inactive). For the same compound, the GI50 (UACC-257) was 7.52 µM (inactive), the GI50 (T47D) was 3.48 µM (inactive) and the GI50 (SF-268) was 3.67 µM (inactive). The GI50 (CAKI-1) was 0.935 µM (active), the GI50 (NCI-H226) was 7.06 µM (inactive) and the GI50 (HCC 2998) was 2.23 µM (inactive). For the same compound, the GI50 (RXF 393) was 1.82 µM (inactive), the GI50 (Hs-578T) was 2.38 µM (inactive) and the GI50 (786-0) was 2.45 µM (inactive). The GI50 (UO-31) was 2.04 µM (inactive), the GI50 (TK-10) was 4.8 µM (inactive) and the GI50 (SW-620) was 2.18 µM (inactive). The GI50 (HOP-62) was 8.55 µM (inactive), the GI50 (COLO 205) was 1.7 µM (inactive) and the GI50 (SF-539) was 2.09 µM (inactive). The GI50 (M14) was 2.7 µM (inactive), the GI50 (HCT-116) was 2.96 µM (inactive) and the GI50 (NCI-H460) was 2.92 µM (inactive). The GI50 (HT-29) was 2.61 µM (inactive), the GI50 (SK-MEL-28) was 2.49 µM (inactive) and the GI50 (NCI-H522) was 0.222 µM (active). The GI50 (SK-OV-3) was 18.4 µM (inactive), the GI50 (NCI-H23) was 4.99 µM (inactive) and the GI50 (DU-145) was 6.08 µM (inactive). For the same compound, the GI50 (SK-MEL-5) was 2.12 µM (inactive), the GI50 (SNB-75) was 12.1 µM (inactive) and the GI50 (BT-549) was 3.04 µM (inactive). For the same compound, the GI50 (PC-3) was 10.7 µM (inactive), the GI50 (EKVX) was 2.59 µM (inactive) and the GI50 (MDA-MB-231) was 6.97 µM (inactive). The GI50 (NCI/ADR-RES) was 6.07 µM (inactive).
With `Cn1c(=O)c2c([nH]/c(=N/N=C/c3ccccc3C(=O)O)n2C)n(C)c1=O` the GI50 (IGROV-1) was > 100 µM (inactive), the GI50 (MOLT-4) was > 100 µM (inactive) and the GI50 (U-251) was > 100 µM (inactive). The GI50 (SF-295) was > 100 µM (inactive), the GI50 (CCRF-CEM) was > 100 µM (inactive) and the GI50 (SR) was > 100 µM (inactive). For the same compound, the GI50 (OVCAR-8) was > 100 µM (inactive), the GI50 (K562) was > 100 µM (inactive) and the GI50 (LOX IMVI) was > 100 µM (inactive). The GI50 (ACHN) was > 100 µM (inactive), the GI50 (HOP-92) was > 100 µM (inactive) and the GI50 (OVCAR-3) was > 100 µM (inactive). The GI50 (A549) was > 100 µM (inactive), the GI50 (UACC-62) was > 100 µM (inactive) and the GI50 (SK-MEL-2) was > 100 µM (inactive). For the same compound, the GI50 (OVCAR-4) was > 100 µM (inactive), the GI50 (OVCAR-5) was > 100 µM (inactive) and the GI50 (MDA-N) was > 100 µM (inactive). The GI50 (HL-60) was > 100 µM (inactive), the GI50 (MCF7) was > 100 µM (inactive) and the GI50 (Malme-3M) was > 100 µM (inactive). For the same compound, the GI50 (RPMI-8226) was > 100 µM (inactive), the GI50 (SNB-19) was > 100 µM (inactive) and the GI50 (HCT-15) was over 100 µM. For the same compound, the GI50 (KM12) was > 100 µM (inactive), the GI50 (MDA-MB-435) was > 100 µM (inactive) and the GI50 (A498) was > 100 µM (inactive). The GI50 (SN12C) was > 100 µM (inactive), the GI50 (UACC-257) was > 100 µM (inactive) and the GI50 (T47D) was > 100 µM (inactive). For the same compound, the GI50 (SF-268) was > 100 µM (inactive), the GI50 (CAKI-1) was > 100 µM (inactive) and the GI50 (NCI-H226) was > 100 µM (inactive). For the same compound, the GI50 (RXF 393) was > 100 µM (inactive), the GI50 (Hs-578T) was > 100 µM (inactive) and the GI50 (786-0) was > 100 µM (inactive). The GI50 (UO-31) was > 100 µM (inactive), the GI50 (TK-10) was > 100 µM (inactive) and the GI50 (SW-620) was > 100 µM (inactive). The GI50 (HOP-62) was > 100 µM (inactive), the GI50 (COLO 205) was > 100 µM (inactive) and the GI50 (SF-539) was > 100 µM (inactive). The GI50 (M14) was > 100 µM (inactive), the GI50 (HCT-116) was > 100 µM (inactive) and the GI50 (NCI-H460) was > 100 µM (inactive). The GI50 (HT-29) was > 100 µM (inactive), the GI50 (SK-MEL-28) was > 100 µM (inactive) and the GI50 (NCI-H522) was > 100 µM (inactive). The GI50 (SK-OV-3) was > 100 µM (inactive), the GI50 (NCI-H23) was > 100 µM (inactive) and the GI50 (DU-145) was > 100 µM (inactive). For the same compound, the GI50 (SK-MEL-5) was > 100 µM (inactive), the GI50 (SNB-75) was > 100 µM (inactive) and the GI50 (BT-549) was > 100 µM (inactive). The GI50 (PC-3) was > 100 µM (inactive), the GI50 (EKVX) was > 100 µM (inactive) and the GI50 (MDA-MB-231) was > 100 µM (inactive). The GI50 (NCI/ADR-RES) was > 100 µM (inactive).
